Assay results taken from US10610538B2, “Pradimicin derivatives for the treatment of diseases caused by kinetoplastids” (KATHOLIEKE UNIVERSITEIT LEUVEN, priority 2013, dated 2020).
Values after ≈ are worked out from the molar mass of the structure shown. Where two headings read alike, the source gives them in different places.

Legend:
T. brucei BSF = experiment: In vitro growth inhibition of T. brucei bloodstream forms; assay type: cell-based, Trypanosoma brucei brucei
Protocol: Trypanosoma brucei brucei single-marker bloodstream forms (BSF) (antigenic type 1.2, MITat 1.2, clone 221a) strain 427, harbouring T7 RNA polymerase and the tetracycline repressor (Wirtz et al., 1999) and Trypanosoma brucei rhodesiense EATRO3 ETat1.2 TREU164 (Turner et al., 2004) were used in this study. Bloodstream forms were cultured at 37° C. and 5% CO2 in HMI-9 supplemented with 10% (v/v) or 20% fetal bovine serum, respectively. The non-peptidic CBAs pradimicin A (PRM-A, derived from Actinomadura hibisca) (Oki et al., 1988) and pradimicin S (PRM-S, derived from Actinomadura spinosa strain A A08 51) (Saitoh et al., 1993) were tested for inhibition of parasite growth.

T. cruzi epimastigotes = experiment: In vitro activity against T. cruzi epimastigotes (resazurin viability); assay type: cell-based, Trypanosoma cruzi Tulahuen strain C4; settings: 3 days
Protocol: (§1) Activity of pradimicin A (PRM-A) and S (PRM-S) against T. cruzi was studied in epimastigote and trypomastigote forms of T. cruzi Tulahuen strain C4.
(§2) In the case of epimastigote forms, 2×10^5 parasites were seeded in a 96-wells plate (100 μL) and incubated 3 days with different drug concentrations between 0.0625 μg·mL^−1 and 100 μg·mL^−1 in liver infusion tryptose (LIT) medium supplemented with 10% fetal calf serum at 28° C. In the case of trypomastigotes, 1×10^5 parasites were seeded in a 96-well plate (100 μL) and incubated with different drug concentrations between 0.006 μg·mL^−1 and 12.5 μg·mL^−1 for 24 h in RPMI 1640 medium supplemented with 10% FBS, 2 mM L-glutamine, 100 U·mL^−1 penicillin and 100 μg·mL^−1 streptomycin at 37° C. and 5% CO2. Cell viability of epimastigotes and lysis percentage of trypomastigotes were determined by adding 10 μL of resazurin (0.11 mg·mL^−1 in PBS) and measuring fluorescence at 570/590 nm of excitation/emission wavelength after 2 h of incubation using a Spectramax Gemini EM microplate fluorometer (Molecular Devices Cooperation, Sunnyvale, Calif., USA). EC50 or 50% lysis values were defined as the drug concentration required for half-maximal inhibition of the cellular growth rate or half-maximal lysis and were calculated by nonlinear regression analysis.

Macrophages = experiment: Toxicity in macrophages; assay type: cell-based, mouse
L. donovani amastigotes = experiment: In vitro activity against intracellular L. donovani amastigotes in mouse peritoneal macrophages; assay type: cell-based, Leishmania donovani MHOM/ET/67HU3; settings: 72 h
Protocol: (§3) Activity of pradimicin A (PRM-A) and S (PRM-S) was tested against promastigote and amastigote forms of L. donovani MHOM/ET/67HU3.
To determine activity against the amastigote form, 1×10^5 mouse peritoneal macrophages were seeded in 24-well tissue culture chamber slides using RPMI 1640 medium supplemented with 10% HIFBS, 2 mM L-glutamine, 100 U·mL-1 penicillin and 100 μg·mL^−1 streptomycin. Compounds were added and cells were then infected with late-stage promastigotes at a macrophage/parasite ratio of 1:10. After 8 h of infection at 35° C. and 5% CO2, extracellular parasites were removed by washing with serum-free medium, and infected macrophage cultures were incubated with different CBA concentrations for 72 h in RPMI 1640 medium plus 10% HIFBS at 37° C. with 5% CO2. After that, macrophages were fixed with 2.5% p-formaldehyde in PBS for 30 min at 4° C., permeabilized with 0.1% Triton X-100 in PBS for 30 min, and incubated with Gold antifade reagent plus DAPI in order to detect the intracellular parasites. Drug activity was determined from the percentage of infected cells and from the number of amastigotes per cell in drug-treated versus non-treated cultures.

[1] = system: L. donovani promastigotes; experiment: In vitro activity against L. donovani promastigotes (proliferation, cell counting); assay type: cell-based, Leishmania donovani MHOM/ET/67HU3; settings: 48 h
Protocol: as §3
In the case of the promastigote forms, 2.5×10^4 parasites were incubated in 24-well plates (1 mL) for 48 h at different drug concentrations between 0.391 μg·mL^−1 and 50 μg·mL^−1 in RPMI 1640 modified supplemented with 20% FBS, 2 mM L-glutamine, 100 U·mL^−1 penicillin and 100 μg·mL^−1 of streptomycin. The proliferation was determined by counting the number of cells using a Z1 Coulter counter. EC50 values were calculated by nonlinear regression analysis.

T. cruzi trypomastigotes = experiment: Lysis of T. cruzi trypomastigotes (resazurin); assay type: cell-based, Trypanosoma cruzi Tulahuen strain C4; settings: 24 h, half-maximal lysis
Protocol: as §1, §2

T. b. brucei 427 = experiment: In vivo activity of PRM-S in C57BL/6J mice infected with T. b. brucei 427; settings: for MRD (mean relapse day) / MSD (mean survival day) / cured/infected: C57BL/6J; for cured/infected: from day 3 post-infection
From the text: (§4) In order to establish the trypanocidal capacity of PRM-S, C57BL/6J or BALB/c mice were infected with T. b. brucei 427 or T. b. rhodesiense EATRO3 strains, respectively, and infection was allowed to proceed for 3 days before treatment with PRM-S, one dosage per day for 4 days.
(§5) Female C57BL/6 or BALB/c mice (Jackson Laboratories, Bar Harbor, Me.) were split in groups containing between three and six mice (6-8 weeks old), and infected via intraperitoneal route with 5×10^3 (T. b. brucei strain 427) or 1×10^4 (T. b. rhodesiense EATRO3) trypanosomes, respectively. Different dosages of PRM-S ([…] and 50 mg·kg^−1) were administered once/day intraperitoneally (200 μL) for 4 days starting on the third day post-infection, in 0.5% w/v hydroxypropylmethylcellulose (HPMC), 0.4% v/v Tween 80 and 0.5% v/v benzyl alcohol used as dosage formulation. One group of mice in each case was also infected and treated with the vehicle as control, Parasitaemia was monitored daily in a haematocytometer under a microscope from the third day post-infection and after tail blood extraction.

T. b. rhodesiense EATRO3 = experiment: In vivo activity of PRM-S in BALB/c mice infected with T. b. rhodesiense EATRO3; settings: for MRD (mean relapse day) / MSD (mean survival day) / cured/infected: BALB/c; for cured/infected: from day 3 post-infection
From the text: as §4, §5

[2] = read-out: EC50 (% Lysis) T. cruzi
[3] = 4 × 25 mg·kg^−1 i.p., listed as PRMS
[4] = 4 × 50 mg·kg^−1 i.p., listed as PRMS

| SMILES | EC50 (T. brucei BSF) [µM] | EC50 (μg · mL^−1) (T. brucei BSF) [µg/mL] | EC50 (T. cruzi epimastigotes) [µM] | EC50 (μg · mL^−1) (T. cruzi epimastigotes) [µg/mL] | EC50 (Macrophages) [µM] | EC50 (μg · mL^−1) (Macrophages) [µg/mL] | EC50 (L. donovani amastigotes) [µM] | EC50 (μg · mL^−1) (L. donovani amastigotes) [µg/mL] | EC50 [1] [µM] | EC50 (μg · mL^−1) [1] [µg/mL] | EC50 (% Lysis) T. cruzi (T. cruzi trypomastigotes) [µg/mL] | EC50 (T. cruzi trypomastigotes; [2]) [µM] | other results |
| --- | --- | --- | --- | --- | --- | --- | --- | --- | --- | --- | --- | --- | --- |
| CN[C@@H]1[C@H](O[C@@H]2OC[C@@H](O)[C@H](O)[C@H]2O)[C@@H](O)[C@H](O[C@H]2c3cc(C)c(C(=O)N[C@H](C)C(=O)O)c(O)c3-c3c(cc4c(c3O)C(=O)c3cc(OC)cc(O)c3C4=O)[C@@H]2O)O[C@@H]1C [PRM-A, pradimicin A] | 3.8 ± 0.05 | 3.20 ± 0.04 (≈ 3.81 µM) | 28.1 ± 1.3 | 23.6 ± 1.1 (≈ 28.1 µM) | > 100 | >100 | 0.8 ± 0.1 | 0.7 ± 0.1 (≈ 0.833 µM) | 21.4 ± 0.8 | 18.0 ± 0.7 (≈ 21.4 µM) | 1.0 ± 0.3 (≈ 1.19 µM) | 1.2 ± 0.3 | – |
| O=C(Cn1ccnc1[N+](=O)[O-])NCc1ccccc1 [Benznidazole, reference compound] | – | – | – | – | – | – | – | – | – | – | – | – | EC50 (T. cruzi trypomastigotes; Trypanosoma cruzi, read-out: EC50 (% Lysis) T. cruzi): 5.2 ± 0.2 µM; EC50 (T. cruzi trypomastigotes; Trypanosoma cruzi, read-out: EC50 (% Lysis) T. cruzi (μg · mL^−1)): 1.35 ± 0.05 µg/mL |
| CN[C@@H]1[C@H](O[C@@H]2O[C@H](CO)[C@@H](O)[C@H](OS(=O)(=O)O)[C@H]2O)[C@@H](O)[C@H](O[C@H]2c3cc(C)c(C(=O)N[C@H](C)C(=O)O)c(O)c3-c3c(cc4c(c3O)C(=O)c3cc(OC)cc(O)c3C4=O)[C@@H]2O)O[C@@H]1C [PRM-S, pradimicin S] | 6.44 ± 0.08 | 5.85 ± 0.08 (≈ 6.15 µM) | 19 ± 2.6 | 17.3 ± 2.4 (≈ 18.2 µM) | > 100 | >100 | 2.3 ± 0.3 | 2.2 ± 0.2 (≈ 2.31 µM) | 22.9 ± 1.9 | 21.8 ± 1.9 (≈ 22.9 µM) | 1.2 ± 0.3 (≈ 1.26 µM) | 1.4 ± 0.3 | MRD (mean relapse day) (T. b. brucei 427; 4 × 25 mg·kg^−1 i.p.): 10.7 ± 0.6 days; MSD (mean survival day) (T. b. brucei 427; 4 × 25 mg·kg^−1 i.p.): 18.0 ± 7 days; MRD (mean relapse day) (T. b. brucei 427; [3]): 10.7 ± 0.6 days; MSD (mean survival day) (T. b. brucei 427; [3]): 18.0 ± 7 days; cured/infected (T. b. brucei 427; 4 × 25 mg·kg^−1 i.p.): 0/3; MSD (mean survival day) (T. b. brucei 427; 4 × 50 mg·kg^−1 i.p.): > 90 days; MSD (mean survival day) (T. b. brucei 427; [4]): >90 days; cured/infected (T. b. brucei 427; 4 × 50 mg·kg^−1 i.p.): 6/6; parasitaemia (T. b. brucei 427; after the first dose of 50 mg·kg^−1): dramatic decrease of parasitaemia; parasitaemia (T. b. brucei 427; after the third dose of 25 mg·kg^−1): dramatic decrease of parasitaemia; mice in which parasitaemia appeared subsequently (relapse) (T. b. rhodesiense EATRO3; 25 mg·kg^−1): three of the five mice; MRD (mean relapse day) (T. b. rhodesiense EATRO3; 4 × 25 mg·kg^−1 i.p.): 10.7 ± 0.6 days; MSD (mean survival day) (T. b. rhodesiense EATRO3; 4 × 25 mg·kg^−1 i.p.): 44.4 ± 41.7 days; MRD (mean relapse day) (T. b. rhodesiense EATRO3; [3]): 10.7 ± 0.6 days; MSD (mean survival day) (T. b. rhodesiense EATRO3; [3]): 44.4 ± 41.7 days; cured/infected (T. b. rhodesiense EATRO3; 4 × 25 mg·kg^−1 i.p.): 2/5; MSD (mean survival day) (T. b. rhodesiense EATRO3; 4 × 50 mg·kg^−1 i.p.): > 90 days; MSD (mean survival day) (T. b. rhodesiense EATRO3; [4]): >90 days; cured/infected (T. b. rhodesiense EATRO3; 4 × 50 mg·kg^−1 i.p.): 5/5; parasitaemia (T. b. rhodesiense EATRO3; both dosages (25 and 50 mg·kg^−1), after the first administration): drastically reduced |
| CN[C@@H]1[C@H](O[C@@H]2O[C@H](CO)[C@@H](O)[C@H](OS(=O)(=O)O)[C@H]2O)[C@@H](O)[C@H](O[C@@H]2c3cc(C)c(C(=O)N[C@H](CO)C(=O)O)c(O)c3-c3c(cc4c(c3O)C(=O)c3cc(OC)cc(O)c3C4=O)[C@H]2O)O[C@@H]1C [PRM-FS, Pradimicin-FS] | 13.5 ± 0.8 | 13.0 ± 0.7 (≈ 13.4 µM) | – | – | – | – | – | – | 50.8 ± 2.1 | 49.1 ± 2.0 (≈ 50.8 µM) | – | – | – |
